Holding throughout (format): cell-based
The subject of assay [1] is RPMI-8226 myeloma cell line bearing KRas^G12A oncogenic mutation. Kind of assay: Cell proliferation inhibition (MTS), RPMI-8226. The settings on record: Homo sapiens, 72 h incubation, MTS, compounds 1-53, median from experimental results. The procedure: (§1) • Cell line #1: A549. Lung carcinoma cell line bearing KRas^G12S oncogenic mutation • Cell line #2: H358. non-small cell lung cancer line bearing KRas^G12C oncogenic mutation • Cell line #3: PANC-1. epithelioid carcinoma of the pancreas cell line bearing KRas^G12D oncogenic mutation • Cell line #4: RPMI. myeloma cell line bearing KRas^G12A oncogenic mutation
(§2) Cell lines were cultured in DMEM or RPMI-1640 supplemented with FBS 10%. In order to assess the antiproliferative effect of compounds, cells were seeded at a density of 1.8×10^3, 6.2×10^3, 7.8×10^3, 21×10^3 and 2×10^3 cells/cm^2, respectively, in tissue culture microplates and were incubated in humidified atmosphere at 5% CO2. 24 h later, compounds dissolved in DMSO 100% were added for different final concentrations ranging between 0.1 and 50 μM for a final DMSO concentration of 0.5% and the plates were incubated for another 72 h. After incubation, proliferation was quantified using CellTiter 96® Aqueous Non-Radioactive Cell Proliferation Assay-MTS (Promega #G5421) following manufacturer instructions. Amount of 490 nm absorbance is directly proportional to the number of living cells. Absorbance was recorded with a BMG Fluostar Optima Microplate Reader and normalized to control with vehicle.

The subject of assay [2] is H358 non-small cell lung cancer line bearing KRas^G12C oncogenic mutation. The experiment in a line: Cell proliferation inhibition (MTS), H358. The settings on record: Homo sapiens, NCI-H358; 72 h incubation, MTS; compounds 1-53, median from experimental results. As for the experimental part: as §1, §2
In assay [3] the test system is A549 lung carcinoma cell line bearing KRas^G12S oncogenic mutation. Kind of assay: Cell proliferation inhibition (MTS), A549. As to conditions: Homo sapiens, 72 h incubation, MTS, compounds 1-53, median from experimental results. The procedure:
as §1, §2

Assay [4] relates to PANC-1 epithelioid carcinoma of the pancreas cell line bearing KRas^G12D oncogenic mutation. The experiment in a line: Cell proliferation inhibition (MTS), PANC-1. As to conditions: Homo sapiens, 72 h incubation, MTS, compounds 1-53, median from experimental results. The procedure: as §1, §2

In the case of `CCC(=O)CCN1CCc2cc(OC)c(OCc3cccc(O)c3)cc2C1c1ccc(C)cc1Cl` (stereo not drawn) [Compound 2], the IC50 (in general, the concentration at which inhibition is half-maximal) in assay [1] amounted to 1800 nM; in assay [2], 12100 nM; in assay [3], 8250 nM; in assay [4] it was 17300 nM.
The matching figures for `COc1cc2c(cc1OCCc1cccc(OC(C)=O)c1)C(c1ccc(C)cc1C)N(C(=O)NCc1cocn1)CC2` (stereo not drawn) [Compound 3]: 1210 nM, 1660 nM, 1970 nM and 1590 nM.
In the case of `CCC(=O)CCN1CCc2cc(OC)c(OCC(=O)c3cccc(C(=O)OC)c3)cc2C1c1ccc(C)cc1Cl` (stereo not drawn) [Compound 4], the IC50 in assay [1] was 2670 nM; in assay [2] it was more than 20000 nM; in assay [3] it was 10100 nM; in assay [4], 29700 nM.
On to `COc1cc2c(cc1OCCc1cccc(O)c1)C(c1c(O)cc(C)cc1Cl)N(CCC(C)=O)CC2` (stereo not drawn) [Compound 5], for which the IC50 in assay [1] was 1510 nM; in assay [2], more than 20000 nM; in assay [3] it was 4820 nM; in assay [4], more than 30000 nM.
Take `CCC(=O)CCN1CCc2cc(OC)c(OCCc3cccc(O)c3)cc2C1c1ccc(C)cc1C` (stereo not drawn) [Compound 7]: the half-maximal inhibitory concentration (IC50) in assay [1] is 2410 nM; in assay [2] it was 18100 nM; in assay [3], 6340 nM; in assay [4] it was 24800 nM.
The matching figures for `CCC(=O)CCN1CCc2cc(OC)c(OCCc3cccc(O)c3)cc2C1c1ccc(OC)c(OC)c1Cl` (stereo not drawn) [Compound 8]: 2110 nM, 11200 nM, 4110 nM and 11100 nM.
On to `CCC(=O)CCN1CCc2cc(OC)c(OCCc3cccc(O)c3)cc2C1c1ccccc1C` (stereo not drawn) [Compound 9], for which the 50% inhibitory concentration (IC50) stood at 740 nM in assay [1], 19000 nM in assay [2], 3650 nM in assay [3] and 24500 nM in assay [4].
For `COc1cc2c(cc1OCCc1cccc(O)c1)C(c1c(C)cc(C)cc1O)N(CCC(C)=O)CC2` (stereo not drawn) [Compound 10] the same measures were 860 nM, 19800 nM, 15900 nM and 15000 nM.
For `COc1ccc(C2c3cc(OCCc4cccc(O)c4)c(OC)cc3CCN2CCC(C)=O)c(C)c1` (stereo not drawn) [Compound 11] the same measures were 1470 nM, 8520 nM, 18000 nM and 12300 nM.
The matching figures for `CCC(=O)CN1CCc2cc(OC)c(OCCc3cccc(O)c3)cc2C1c1ccc(C)cc1Cl` (stereo not drawn) [Compound 12]: 4980 nM, 16800 nM, 8990 nM and 13600 nM.
On to `COc1cc2c(cc1OCCc1cccc(O)c1)C(c1ccc(C)cc1Cl)N(C(=O)NCc1ccncc1)CC2` (stereo not drawn) [Compound 13], for which the IC50 in assay [1] amounted to 2860 nM; in assay [2], 15800 nM; in assay [3], 9370 nM; in assay [4] it was 12600 nM.
The matching figures for `COc1cc2c(cc1OCCc1ccc3c(c1)CCC3)C(c1ccc(C)cc1C)N(C(=O)NCc1ccncc1)CC2` (stereo not drawn) [Compound 14]: 3940 nM, more than 10000 nM, more than 10000 nM and more than 30000 nM.
In the case of `COc1cc2c(cc1OCCc1ccc3c(c1)CCO3)C(c1ccc(C)cc1C)N(C(=O)NCc1ccncc1)CC2` (stereo not drawn) [Compound 15], the concentration for half-maximal inhibition (IC50) came to 890 nM in assay [1], 2580 nM in assay [2], 2140 nM in assay [3] and 2130 nM in assay [4].
For `COc1cc2c(cc1OCCc1cccc(O)c1)C(c1ccc(C)cc1C)N(C(=O)NCc1ccncc1)CC2` (stereo not drawn) [Compound 16] the same measures were 480 nM, 7240 nM, more than 5000 nM and 12000 nM.
The matching figures for `COc1cc2c(cc1OCCc1cccc(O)c1)C(c1ccc(C)cc1C)N(C(=O)NCc1cncs1)CC2` (stereo not drawn) [Compound 19]: 2930 nM, 680 nM, 950 nM and 570 nM.
For `COc1cc2c(cc1OCCc1cccc(O)c1)C(c1ccc(C)cc1C)N(C(=O)NCc1ccccn1)CC2` (stereo not drawn) [Compound 20] the same measures were 600 nM, 480 nM, 750 nM and 560 nM.
As for `COc1cc2c(cc1OCCc1cccc(F)c1)C(c1ccc(C)cc1C)N(C(=O)NCc1cocn1)CC2` (stereo not drawn) [Compound 21], the IC50 in assay [1] worked out at 900 nM; in assay [2], 780 nM; in assay [3], 1330 nM; in assay [4], 810 nM.
On to `COc1cc2c(cc1OCCc1ccccc1)C(c1ccc(C)cc1C)N(C(=O)NCc1cocn1)CC2` (stereo not drawn) [Compound 22], for which the IC50 in assay [1] was 820 nM; in assay [2] it was 650 nM; in assay [3] it was 890 nM; in assay [4], 600 nM.
For `Cc1ccc(C2c3cc(OCCc4cccc(O)c4)c(C(N)=O)cc3CCN2C(=O)NCc2cocn2)c(C)c1` (stereo not drawn) [Compound 24] the same measures were 870 nM, 840 nM, 740 nM and 660 nM.
For `Cc1ccc(C2c3cc(OCCc4cccc(O)c4)c(O)cc3CCN2C(=O)NCc2cocn2)c(C)c1` (stereo not drawn) [Compound 25] the same measures were 580 nM, 520 nM, 550 nM and 530 nM.
For `COc1cc2c(cc1OCCc1cccc(C(N)=O)c1)C(c1ccc(C)cc1C)N(C(=O)NCc1cocn1)CC2` (stereo not drawn) [Compound 27] the same measures were 980 nM, 1120 nM, 1020 nM and 1330 nM.
In the case of `Cc1ccc(C2c3cc(OCCc4cccc(C(N)=O)c4)c(C(N)=O)cc3CCN2C(=O)NCc2cocn2)c(C)c1` (stereo not drawn) [Compound 28], the IC50 in assay [1] worked out at 1020 nM; in assay [2], 1230 nM; in assay [3], 1560 nM; in assay [4] it was 2010 nM.
The matching figures for `COc1cc2c(cc1OCCc1cccc(O)c1)C(c1ccc(C)cc1Cl)N(C(=O)NCc1cocn1)CC2` (stereo not drawn) [Compound 29]: 690 nM, 960 nM, 760 nM and 680 nM.
For `COc1cc2c(cc1OCCc1cccc(C(=O)O)c1)C(c1ccc(C)cc1C)N(C(=O)NCc1cocn1)CC2` (stereo not drawn) [Compound 31] the same measures were 1910 nM, 2110 nM, 2070 nM and 1830 nM.
The matching figures for `Cc1ccc(C2c3cc(OCCc4cccc(O)c4)c(C(=O)O)cc3CCN2C(=O)NCc2cocn2)c(C)c1` (stereo not drawn) [Compound 32]: 520 nM, 310 nM, 440 nM and 490 nM.
In the case of `Cc1ccc(C2c3cc(OCCc4cccnc4)c(C(N)=O)cc3CCN2C(=O)NCc2cocn2)c(C)c1` (stereo not drawn) [Compound 34, 1-(2,4-dimethylphenyl)-N2-(oxazol-4-ylmethyl)-7-(2-(pyridin-3-yl)ethoxy)-3,4-dihydroisoquinoline-2,6(1H)-dicarboxamide], the IC50 in assay [1] is 720 nM; in assay [2], 390 nM; in assay [3], 430 nM; in assay [4], 420 nM.
`Cc1ccc(C2c3cc(OCCc4cccnc4)c(C(=O)O)cc3CCN2C(=O)NCc2cocn2)c(C)c1` (stereo not drawn) [Compound 35]: the IC50 worked out at 320 nM in assay [1], 510 nM in assay [2], 330 nM in assay [3] and 430 nM in assay [4].
For `Cc1ccc(C2c3cc(OCCc4cccnc4)c(NC=O)cc3CCN2C(=O)NCc2cocn2)c(C)c1` (stereo not drawn) [Compound 36] the same measures were 990 nM, 910 nM, 730 nM and 670 nM.
The matching figures for `CC(=O)Nc1cc2c(cc1OCCc1cccnc1)C(c1ccc(C)cc1C)N(C(=O)NCc1cocn1)CC2` (stereo not drawn) [Compound 37]: 1210 nM, 710 nM, 810 nM and 740 nM.
The matching figures for `Cc1ccc(C2c3cc(OCCc4cccnc4)c(Cl)cc3CCN2C(=O)NCc2cocn2)c(C)c1` (stereo not drawn) [Compound 38]: 220 nM, 1090 nM, 430 nM and 420 nM.
Consider `CC(=O)c1cc2c(cc1OCCc1cccnc1)C(c1ccc(C)cc1C)N(C(=O)NCc1cocn1)CC2` (stereo not drawn) [Compound 39], for which the IC50 in assay [1] was 410 nM; in assay [2], 520 nM; in assay [3], 340 nM; in assay [4], 470 nM.
The matching figures for `CC(=O)Cc1cc2c(cc1OCCc1cccnc1)C(c1ccc(C)cc1C)N(C(=O)NCc1cocn1)CC2` (stereo not drawn) [Compound 40]: 1330 nM, 960 nM, 820 nM and 810 nM.
The matching figures for `Cc1ccc(C2c3cc(OCCc4cccnc4)c(CO)cc3CCN2C(=O)NCc2cocn2)c(C)c1` (stereo not drawn) [Compound 41]: 1380 nM, 1140 nM, 1270 nM and 2110 nM.

The record behind these values is patent publication US11466012B2, “Tetrahydroisoquinoline compounds” (ALLINKY BIOPHARMA, priority 2018, dated 2022).
